According to ChEMBL document CHEMBL5316338, “Discovery of Novel PTP1B Inhibitors with Once-Weekly Therapeutic Potential for Type 2 Diabetes: Design, Synthesis, and In Vitro and In Vivo Investigations of BimBH3 Peptide Analogues” (J Med Chem, 2023):
Numbered stars: 1 amine (or outer) side, 2 acyl side, 3 side chain; on linkers, the order of the positions; unused ones are H or OH. Square brackets hold non-standard residues; d marks the D form. Peptide text beside a SMILES is read from it. * marks the point of attachment. ξ: configuration not given here. Arachidoyl = CCCCCCCCCCCCCCCCCCCC(=O)*; Adipoyl = O=C(CCCCC(=O)[*:2])[*:1]; Glutaryl = O=C(CCCC(=O)[*:2])[*:1]; Decanoyl = CCCCCCCCCC(=O)*; ξR = N=C(N)NCCCC(N)C(=O)O; Heptanoyl = CCCCCCC(=O)*; Aun = NCCCCCCCCCCC(=O)O; Hexanoyl = CCCCCC(=O)*; Butyryl = CCCC(=O)*

biological target: T1, Tyrosine-protein phosphatase non-receptor type 1 (Homo sapiens) (UniProt P18031); assay: Inhibition of N-terminal His tagged recombinant human PTP1B expressed in Escherichia coli using pNPP as substrate assessed as substrate hydrolysis at 40 umol/L relative to control; conditions: dose 40.0 µmol/L
T1 sequence (whole entry): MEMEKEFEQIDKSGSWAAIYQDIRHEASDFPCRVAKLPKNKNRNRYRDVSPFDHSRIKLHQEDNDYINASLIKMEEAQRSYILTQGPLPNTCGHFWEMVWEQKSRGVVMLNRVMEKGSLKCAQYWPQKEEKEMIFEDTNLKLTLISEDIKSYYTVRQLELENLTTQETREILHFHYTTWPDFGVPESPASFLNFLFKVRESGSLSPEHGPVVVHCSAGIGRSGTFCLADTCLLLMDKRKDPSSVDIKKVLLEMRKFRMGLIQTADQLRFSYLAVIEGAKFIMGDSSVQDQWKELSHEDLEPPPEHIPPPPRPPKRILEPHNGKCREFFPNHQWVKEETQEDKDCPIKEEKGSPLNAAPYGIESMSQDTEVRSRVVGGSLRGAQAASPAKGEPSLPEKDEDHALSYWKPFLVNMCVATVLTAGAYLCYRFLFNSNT

Q: CCCCCCCCCCCCCCCC(=O)N[C@@H](CCC(=O)N[C@H](C(=O)N[C@@H](C)C(=O)N[C@H](CCC(N)=O)C(=O)N[C@@H](CCC(=O)O)C(=O)N[C@@H](CC(C)C)C(=O)N[C@@H](CCCNC(=N)N)C(=O)N[C@@H](CCCNC(=N)N)C(=O)N[C@H](C(=O)NCC(=O)N[C@@H](CC(=O)O)C(=O)N[C@@H](CCC(=O)O)C(=O)N[C@@H](Cc1ccccc1)C(=O)O)[C@@H](C)CC)[C@@H](C)CC)C(=O)O was tested. Which inhibition did it give?
A: > 50%

Q: For CC[C@H](C)[C@H](NC(=O)CCCCCCCCC(=O)O)C(=O)N[C@@H](C)C(=O)N[C@@H](CCC(N)=O)C(=O)N[C@@H](CCC(=O)O)C(=O)N[C@@H](CC(C)C)C(=O)N[C@@H](CCCNC(=N)N)C(=O)N[C@@H](CCCNC(=N)N)C(=O)N[C@H](C(=O)NCC(=O)N[C@H](CC(=O)O)C(=O)N[C@@H](CCC(=O)O)C(=O)N[C@@H](Cc1ccccc1)C(=O)O)[C@@H](C)CC, which inhibition is on record?
A: < 50%

Q: How did the inhibition turn out when CC[C@H](C)[C@H](NC(=O)CCCCC(=O)O)C(=O)N[C@@H](C)C(=O)N[C@@H](CCC(N)=O)C(=O)N[C@@H](CCC(=O)O)C(=O)N[C@@H](CC(C)C)C(=O)N[C@@H](CCCNC(=N)N)C(=O)N[C@@H](CCCNC(=N)N)C(=O)N[C@H](C(=O)NCC(=O)N[C@@H](CC(=O)O)C(=O)N[C@@H](CCC(=O)O)C(=O)N[C@@H](Cc1ccccc1)C(=O)O)[C@@H](C)CC (Adipoyl-IAQELRRIGDEF-OH) was run?
A: < 50%

Q: With CCCCCCCCCCCCCCCCCCCC(=O)N[C@H](C(=O)N[C@@H](C)C(=O)N[C@@H](CCC(N)=O)C(=O)N[C@@H](CCC(=O)O)C(=O)N[C@@H](CC(C)C)C(=O)N[C@@H](CCCNC(=N)N)C(=O)NC(CCCNC(=N)N)C(=O)N[C@H](C(=O)NCC(=O)N[C@@H](CC(=O)O)C(=O)N[C@@H](CCC(=O)O)C(=O)N[C@@H](Cc1ccccc1)C(=O)O)[C@@H](C)CC)[C@@H](C)CC (stereo partly drawn) (Arachidoyl-IAQELR[ξR]IGDEF-OH) as the molecule, how does the inhibition read?
A: > 50%

Q: With CCCC(=O)N[C@H](C(=O)N[C@@H](C)C(=O)N[C@@H](CCC(N)=O)C(=O)N[C@@H](CCC(=O)O)C(=O)N[C@@H](CC(C)C)C(=O)N[C@@H](CCCNC(=N)N)C(=O)N[C@@H](CCCNC(=N)N)C(=O)N[C@H](C(=O)NCC(=O)N[C@@H](CC(=O)O)C(=O)N[C@@H](CCC(=O)O)C(=O)N[C@@H](Cc1ccccc1)C(=O)O)[C@@H](C)CC)[C@@H](C)CC (Butyryl-IAQELRRIGDEF-OH) as the molecule, how does the inhibition read?
A: < 50%

Q: CCCCCCCCCC(=O)N[C@H](C(=O)N[C@@H](C)C(=O)N[C@@H](CCC(N)=O)C(=O)N[C@@H](CCC(=O)O)C(=O)N[C@@H](CC(C)C)C(=O)N[C@@H](CCCNC(=N)N)C(=O)N[C@@H](CCCNC(=N)N)C(=O)N[C@H](C(=O)NCC(=O)N[C@@H](CC(=O)O)C(=O)N[C@@H](CCC(=O)O)C(=O)N[C@@H](Cc1ccccc1)C(=O)O)[C@@H](C)CC)[C@@H](C)CC (Decanoyl-IAQELRRIGDEF-OH) was tested. Which inhibition did it give?
A: > 50%

Q: CC[C@H](C)[C@H](NC(=O)CCCC(=O)O)C(=O)N[C@@H](C)C(=O)N[C@@H](CCC(N)=O)C(=O)N[C@@H](CCC(=O)O)C(=O)N[C@@H](CC(C)C)C(=O)N[C@@H](CCCNC(=N)N)C(=O)N[C@@H](CCCNC(=N)N)C(=O)N[C@H](C(=O)NCC(=O)N[C@@H](CC(=O)O)C(=O)N[C@@H](CCC(=O)O)C(=O)N[C@@H](Cc1ccccc1)C(=O)O)[C@@H](C)CC (Glutaryl-IAQELRRIGDEF-OH) was tested. Which inhibition did it give?
A: < 50%

Q: For CC[C@H](C)[C@H](NC(=O)CCCCCCCCCCN)C(=O)N[C@@H](C)C(=O)N[C@@H](CCC(N)=O)C(=O)N[C@@H](CCC(=O)O)C(=O)N[C@@H](CC(C)C)C(=O)N[C@@H](CCCNC(=N)N)C(=O)N[C@@H](CCCNC(=N)N)C(=O)N[C@H](C(=O)NCC(=O)N[C@@H](CC(=O)O)C(=O)N[C@@H](CCC(=O)O)C(=O)N[C@@H](Cc1ccccc1)C(=O)O)[C@@H](C)CC (H-[Aun]IAQELRRIGDEF-OH), which inhibition is on record?
A: < 50%

Q: With CCCCCCC(=O)N[C@H](C(=O)N[C@@H](C)C(=O)N[C@@H](CCC(N)=O)C(=O)N[C@@H](CCC(=O)O)C(=O)N[C@@H](CC(C)C)C(=O)N[C@@H](CCCNC(=N)N)C(=O)N[C@@H](CCCNC(=N)N)C(=O)N[C@H](C(=O)NCC(=O)N[C@@H](CC(=O)O)C(=O)N[C@@H](CCC(=O)O)C(=O)N[C@@H](Cc1ccccc1)C(=O)O)[C@@H](C)CC)[C@@H](C)CC (Heptanoyl-IAQELRRIGDEF-OH) as the molecule, how does the inhibition read?
A: < 50%

Q: How did the inhibition turn out when CCCCCC(=O)N[C@H](C(=O)N[C@@H](C)C(=O)N[C@@H](CCC(N)=O)C(=O)N[C@@H](CCC(=O)O)C(=O)N[C@@H](CC(C)C)C(=O)N[C@@H](CCCNC(=N)N)C(=O)N[C@@H](CCCNC(=N)N)C(=O)N[C@H](C(=O)NCC(=O)N[C@@H](CC(=O)O)C(=O)N[C@@H](CCC(=O)O)C(=O)N[C@@H](Cc1ccccc1)C(=O)O)[C@@H](C)CC)[C@@H](C)CC (Hexanoyl-IAQELRRIGDEF-OH) was run?
A: < 50%

biological target: T2, Tyrosine-protein phosphatase non-receptor type 1 (Homo sapiens, UniProt P18031); assay: Inhibition of N-terminal His tagged recombinant human PTP1B expressed in Escherichia coli using pNPP as substrate assessed as substrate hydrolysis; conditions: not given
T2 sequence (P18031 whole entry): T1 sequence (whole entry)

Q: For CCCCCCCCCCCCCCCC(=O)N[C@@H](CCC(=O)N[C@H](C(=O)N[C@@H](C)C(=O)N[C@H](CCC(N)=O)C(=O)N[C@@H](CCC(=O)O)C(=O)N[C@@H](CC(C)C)C(=O)N[C@@H](CCCNC(=N)N)C(=O)N[C@@H](CCCNC(=N)N)C(=O)N[C@H](C(=O)NCC(=O)N[C@@H](CC(=O)O)C(=O)N[C@@H](CCC(=O)O)C(=O)N[C@@H](Cc1ccccc1)C(=O)O)[C@@H](C)CC)[C@@H](C)CC)C(=O)O, which IC50 is on record?
A: 4.35 µM

Q: How did the IC50 turn out when CCCCCCCCCCCCCCCCCCCC(=O)N[C@H](C(=O)N[C@@H](C)C(=O)N[C@@H](CCC(N)=O)C(=O)N[C@@H](CCC(=O)O)C(=O)N[C@@H](CC(C)C)C(=O)N[C@@H](CCCNC(=N)N)C(=O)NC(CCCNC(=N)N)C(=O)N[C@H](C(=O)NCC(=O)N[C@@H](CC(=O)O)C(=O)N[C@@H](CCC(=O)O)C(=O)N[C@@H](Cc1ccccc1)C(=O)O)[C@@H](C)CC)[C@@H](C)CC (stereo partly drawn) (Arachidoyl-IAQELR[ξR]IGDEF-OH) was run?
A: 3.89 µM

Q: Which IC50 does the source give for CCCCCCCCCC(=O)N[C@H](C(=O)N[C@@H](C)C(=O)N[C@@H](CCC(N)=O)C(=O)N[C@@H](CCC(=O)O)C(=O)N[C@@H](CC(C)C)C(=O)N[C@@H](CCCNC(=N)N)C(=O)N[C@@H](CCCNC(=N)N)C(=O)N[C@H](C(=O)NCC(=O)N[C@@H](CC(=O)O)C(=O)N[C@@H](CCC(=O)O)C(=O)N[C@@H](Cc1ccccc1)C(=O)O)[C@@H](C)CC)[C@@H](C)CC (Decanoyl-IAQELRRIGDEF-OH) here?
A: 2.14 µM
